Results on 79 compounds are retold here after the RepoRT retention time repository.

A short description of the data set: Waters ACQUITY UPLC BEH C18, 50 × 2.1 mm, 1.7 µm, 30 °C, 0.3 mL/min, estimated dead time 0.37 min; A: water + 0.3% formic acid; B: acetonitrile; gradient (min/%B) 0.5/5 3.5/20 5.5/25 7/57 8/90. The following applies: stereoisomer not certain.

For `CC(CN1CCOCC1)C(C(=O)N1CCCC1)(c1ccccc1)c1ccccc1` (centres undefined), the LC retention time was 6.97 min.

Turning to `O=C1NC(=NC2CC2)OC1c1ccccc1` (centres undefined), the LC retention time is 4.84 min.

Turning to `C#CCN(C)C(C)Cc1ccccc1` (centres undefined), the LC retention time is 3.38 min.

On to `CC(C)NCC(O)COc1cccc2ccccc12` (centres undefined), for which the LC retention time is 5.78 min.

Take `CC(CCc1ccccc1)NCC(O)c1ccc(O)c(C(N)=O)c1` (centres undefined): the LC retention time was 5.1 min.

For the compound `CCCC1OC2CC3C4CCC5=CC(=O)C=CC5(C)C4C(O)CC3(C)C2(C(=O)CO)O1` (centres undefined), the LC retention time is 7.46 min.

Regarding `CC(C)NCC(O)COc1cccc2[nH]ccc12` (centres undefined), the LC retention time was 2.74 min.

On to `CCCCNc1cc(C(=O)O)cc(S(N)(=O)=O)c1Oc1ccccc1`, for which the LC retention time was 7.49 min.

Take `CCCN(CCC)S(=O)(=O)c1ccc(C(=O)O)cc1`: the LC retention time is 7.56 min.

For the compound `CC(=O)OCC(=O)C12N=C(C)OC1CC1C3CCC4=CC(=O)C=CC4(C)C3C(O)CC12C` (centres undefined), the LC retention time is 7.2 min.

As for `CC(Cc1ccccc1)NCCn1cnc2c1c(=O)n(C)c(=O)n2C` (centres undefined), the LC retention time was 4.01 min.

For `O=C(O)CS(=O)C(c1ccccc1)c1ccccc1` (centres undefined), the LC retention time is 6.69 min.

Turning to `CNC(C)Cc1ccc2c(c1)OCO2` (centres undefined), the LC retention time was 2.73 min.

Turning to `C=CCOc1ccccc1OCC(O)CNC(C)C` (centres undefined), the LC retention time is 4.66 min.

Take `CNC(C)Cc1ccccc1` (centres undefined): the LC retention time was 2.59 min.

`COc1ccc2c3c1OC1C(O)C=CC4C(C2)N(C)CCC341` (centres undefined): the LC retention time was 2.15 min.

Take `CC(C)(C#N)c1cc(Cn2cncn2)cc(C(C)(C)C#N)c1`: the LC retention time was 6.91 min.

`Cc1cccc(Nc2ccncc2S(=O)(=O)NC(=O)NC(C)C)c1`: the LC retention time was 6.02 min.

`CC1NCCOC1c1ccccc1` (centres undefined): the LC retention time is 2.51 min.

`CCN(CC)C(C)C(=O)c1ccccc1` (centres undefined): the LC retention time was 2.73 min.

For the compound `CCCC(Cc1ccccc1)N1CCCC1` (centres undefined), the LC retention time is 5.09 min.

On to `CC(Cc1ccccc1)NCCC#N` (centres undefined), for which the LC retention time was 2.77 min.

In the case of `CC1(C)OC2CC3C4CCC5=CC(=O)C=CC5(C)C4C(O)CC3(C)C2(C(=O)CO)O1` (centres undefined), the LC retention time is 6.98 min.

In the case of `OCc1cc(C(O)CNCCCCCCOCCCCc2ccccc2)ccc1O` (centres undefined), the LC retention time is 7.12 min.

For `Cc1ccc(CC(C)N)cc1` (centres undefined), the LC retention time is 3.45 min.

Turning to `CC(C)(C)NCC(O)COc1cccc2c1CC(O)C(O)C2` (centres undefined), the LC retention time is 2.81 min.

As for `CCNCC(O)c1cccc(O)c1` (centres undefined), the LC retention time was 0.92 min.

Regarding `CC(C)NCC(O)COc1ccc(COCCOC(C)C)cc1` (centres undefined), the LC retention time is 5.03 min.

`CCNC1C2CCC(C2)C1c1ccccc1` (centres undefined): the LC retention time was 4.97 min.

For `NC(=O)c1ncn(C2OC(CO)C(O)C2O)c1N` (centres undefined), the LC retention time was 0.58 min.

Turning to `CCN(CC)C(=O)Nc1ccc(OCC(O)CNC(C)(C)C)c(C(C)=O)c1` (centres undefined), the LC retention time is 4.46 min.

Turning to `CC(C)(C)NCC(O)COc1cccc2c1CCC(=O)N2` (centres undefined), the LC retention time is 2.65 min.

Turning to `CC(N)CCCC(C)(C)O` (centres undefined), the LC retention time is 1.29 min.

Consider `COc1ccccc1OCCNCC(O)COc1cccc2[nH]c3ccccc3c12` (centres undefined), for which the LC retention time was 6.81 min.

With `CC(C)NCC(O)COc1ccc(CCOCC2CC2)cc1` (centres undefined), the LC retention time is 6.11 min.

In the case of `CC(=O)Oc1c(C)cc(OCC(O)CNC(C)C)c(C)c1C` (centres undefined), the LC retention time is 5.62 min.

As to `NC(CC(O)COc1cccc2ccccc12)=NO` (centres undefined), the LC retention time was 4.76 min.

For `COc1ccc(CC(C)NCC(O)c2ccc(O)c(NC=O)c2)cc1` (centres undefined), the LC retention time is 3.94 min.

Take `COC(=O)C1CC2=CC(=O)CCC2(C)C23OC2CC2(C)C(CCC24CCC(=O)O4)C13` (centres undefined): the LC retention time was 6.75 min.

Consider `COc1ccc2c3c1OC1C(=O)CCC4(O)C(C2)N(C)CCC314` (centres undefined), for which the LC retention time was 2.47 min.

With `CC(C)(C)NCC(O)c1cc(O)cc(O)c1` (centres undefined), the LC retention time is 1.44 min.

Regarding `CC(C)NCC(O)COc1ccc(CC(N)=O)cc1` (centres undefined), the LC retention time is 1.62 min.

Regarding `CC(C)c1c(CN(C)C(C)Cc2ccccc2)n(C)n(-c2ccccc2)c1=O` (centres undefined), the LC retention time was 6.48 min.

`C#CC1(O)CCC2C3C(C)CC4=C(CCC(=O)C4)C3CCC21C` (centres undefined): the LC retention time was 7.51 min.

Turning to `CCN(CC)C(=O)c1ccc(O)c(OC)c1`, the LC retention time was 4.77 min.

In the case of `CCCCCC(C)N` (centres undefined), the LC retention time is 3.17 min.

`C=CCc1ccccc1OCC(O)CNC(C)C` (centres undefined): the LC retention time was 5.93 min.

In the case of `COC12CCC3(CC1C(C)(O)C(C)(C)C)C1Cc4ccc(O)c5c4C3(CCN1CC1CC1)C2O5` (centres undefined), the LC retention time is 6.55 min.

Consider `CC12CCC(=O)C=C1CCC1C2C(=O)CC2(C)C1CCC2(O)C(=O)CO` (centres undefined), for which the LC retention time was 6.31 min.

On to `CC(N)Cc1ccc(O)cc1` (centres undefined), for which the LC retention time is 1.17 min.

For `COC(=O)C(c1ccccc1)C1CCCCN1` (centres undefined), the LC retention time was 3.9 min.

In the case of `C#CC1(O)CCC2C3CCC4=CC(=O)CCC4=C3C=CC21CC` (centres undefined), the LC retention time was 7.47 min.

On to `CC12CCC3C(CCC4=CC(=O)C=CC43C)C1CCC(=O)O2` (centres undefined), for which the LC retention time is 6.56 min.

For `CC(C)NC1CCn2c(=O)[nH]c3cccc(c32)C1O` (centres undefined), the LC retention time is 1.43 min.

On to `CNC(C)Cc1ccccc1OC` (centres undefined), for which the LC retention time is 3.3 min.

As for `CC12Cc3cn[nH]c3C(O)C1CCC1C2CCC2(C)C1CCC2(C)O` (centres undefined), the LC retention time is 6.7 min.

`OC(c1ccccc1)(c1ccccc1)C1CCCCN1` (centres undefined): the LC retention time was 4.75 min.

`CNCC(C)c1ccccc1` (centres undefined): the LC retention time is 2.57 min.

With `CC(C)(C)NCC(O)c1ccc(O)c(CO)c1` (centres undefined), the LC retention time is 1.45 min.

On to `CC(C)(N)Cc1ccccc1`, for which the LC retention time was 2.91 min.

Turning to `CC(N)C(O)c1ccccc1` (centres undefined), the LC retention time was 1.7 min.

Take `CNC(C)CC1CCCCC1` (centres undefined): the LC retention time is 4.4 min.

With `CCOC(=O)C1(c2ccccc2)CCN(C)CC1`, the LC retention time is 4.43 min.

As to `CC1CC2C(C(O)CC3(C)C2CCC3(O)C(=O)CO)C2(C)C=CC(=O)C=C12` (centres undefined), the LC retention time was 6.78 min.

For the compound `CC(C(O)c1ccccc1)N(C)C` (centres undefined), the LC retention time is 2.2 min.

For `CC(C)=CCN1CCC2(C)c3cc(O)ccc3CC1C2C` (centres undefined), the LC retention time is 5.07 min.

With `CC12Cc3c([nH][nH]c3=O)CC1CCC1C2CCC2(C)C1CCC2(C)O` (centres undefined), the LC retention time was 6.7 min.

With `CC12CCC(=O)C=C1CCC1C2C(O)CC2(C)C1CCC2(O)C(=O)CO` (centres undefined), the LC retention time was 6.23 min.

For the compound `CC12C=CC(=O)C=C1CCC1C2C(O)CC2(C)C1CCC2(O)C(=O)CO` (centres undefined), the LC retention time is 6.15 min.

On to `CC(N)Cc1ccc2c(c1)OCO2` (centres undefined), for which the LC retention time is 2.5 min.

As to `CCC1(O)CCC2C3CCC4=CC(=O)CCC4=C3C=CC21CC` (centres undefined), the LC retention time was 7.79 min.

On to `CNC(C)C(O)c1ccc(O)cc1` (centres undefined), for which the LC retention time was 0.65 min.

Consider `Nc1nc(N)c2nc(-c3ccccc3)c(N)nc2n1`, for which the LC retention time was 3 min.

`O=C1CC2OCC=C3CN4CCC56c7ccccc7N1C5C2C3CC46` (centres undefined): the LC retention time was 3.01 min.

For `CN1CCC23c4c5ccc(O)c4OC2C(=O)CCC3(O)C1C5` (centres undefined), the LC retention time is 1.21 min.

Consider `NC(=O)CS(=O)C(c1ccccc1)c1ccccc1` (centres undefined), for which the LC retention time was 6.01 min.

As for `CC(Cc1ccc(O)cc1)NCC(O)c1cc(O)cc(O)c1` (centres undefined), the LC retention time is 2.23 min.

On to `CCN(CC)C(=O)c1cccnc1`, for which the LC retention time is 2.02 min.

On to `CC1C(c2ccccc2)OCCN1C` (centres undefined), for which the LC retention time was 2.55 min.
